How the values were obtained:
[1] = tested on: human lung carcinoma A549; assay: MTT assay, A549; type: cell-based
Method: (§1) Human colon carcinoma HT29, human breast carcinoma MCF7, human bone sarcoma U2OS, human prostate carcinoma PC3, and human cervix carcinoma HeLa cells were obtained from the ATCC. A2780/CP70 cisplatin-resistant human ovarian cancer cells were kindly provided by Dr. Stephen B. Howell (Moores UCSD Cancer Center) and the human lung carcinoma cell lines A549 and normal lung fibroblast MRC5 by David E. Root (Whitehead Institute for Biomedical Research). Cells were incubated at 37° C. in 5% CO2 and grown in RPMI (HT29, A2780/CP70, and PC3) or DMEM (A549, MRC5, HeLa, MCF7, and U2OS) medium supplemented with 10% fetal bovine serum and 1% penicillin/streptomycin. Cells were passed every 3 to 4 days and restarted from a frozen stock upon reaching pass number 20.
(§2) Solutions of the platinum compounds were freshly prepared in sterile PBS before use and their concentrations quantitated by atomic absorption spectroscopy. Cells were seeded on a 96-well plate (1200 cells per well for cancer cells and 1800 cells per well for the normal lung fibroblasts) in 100 μL RPMI or DMEM media, and incubated for 24 h. […] The cells were then treated with 20 μL of 3-(4,5-dimethylthiazol-2-yl)-2,5-diphenyltetrazolium bromide (MTT) (5 mg/mL in PBS) and incubated for 4 h. The medium was removed, 100 μL of DMSO was added to the cells, and the absorbance of the purple formazan was recorded at 560 nm using a BioTek Synergy HT multi-detection microplate plate reader. Each condition was performed in triplicate and three independent experiments were carried out for each cell line.
(§3) Human prostate carcinoma (PC3) and human cervix carcinoma (HeLa) cells were obtained from the ATCC. The human lung carcinoma cell line A549 was kindly provided by David E. Root (Whitehead Institute for Biomedical Research). Cells were incubated at 37° C. in 5% CO2 and grown in RPMI (PC3) or DMEM (A549 and HeLa) medium supplemented with 10% fetal bovine serum and 1% penicillin/streptomycin. Cells were passaged every 3 to 4 days and restarted from the frozen stock upon reaching passage number 20.
(§4) Solutions of the platinum agents were freshly prepared in sterile PBS before use and the platinum content was quantitated by AAS. Cells were seeded on 96 well plates (1200 cells per well) in 100 μL RPMI or DMEM media\ and incubated for 24 hours. […] The cells were then treated with 20 μL of 3-(4,5-dimethylthiazol-2-yl)-2,5-diphenyltetrazolium bromide (MTT) (5 mg/mL in PBS) and incubated for 4 h. The medium was removed, 100 μL of DMSO were added to the cells, and the absorbance of the purple formazan was recorded at 570 nm using a BioTek Synergy HT multi-detection microplate plate reader. For each cell line, three independent experiments were carried out in triplicate.

[2] = tested on: human prostate carcinoma PC3; assay: MTT assay, PC3; type: cell-based
Method: as §1, §2, §3, §4

pGLuc plasmid = assay: Platination of pGLuc plasmid; type: biochemical
Method: The resulting mixtures were dialyzed (molecular weight cut-off 3.5 kDa) against ddH2O overnight at 4° C. with five changes of ddH2O. The rb values (bound Pt/nucleotide) were determined by UV/Vis and atomic absorption spectroscopy.
In one embodiment, the ratio of bound platinum per plasmid was determined by measuring the Pt concentration by atomic absorption spectroscopy and the DNA concentration by UV/Vis spectroscopy.

[3] = tested on: GLuc expression in HT29 cells; assay: Transcription assay, globally platinated pGLuc, HT29; type: cell-based, human
Method: Transfection of transcription probes into A549 and HT29 cells with the pGLuc plasmid was carried out using liposomal transfecting agents. Determination of expression levels was tested by Luciferase assays monitored by a luminometer (J. Am. Chem. Soc. 2010, 132, 7429-7435). A549 cells were plated in 96-well plates at 2,000 cells/well and HT29 cells were plated in 96-well plates at 6,000 cells/well. After 48 h incubation (at ˜30% confluence), cells were transfected with 50 ng of platinated plasmids in 25 μL Opti-MEM and 0.125 μL Lipofectamine 2000, and subsequently 50 μL of antibiotics-free DMEM supplemented with 10% FBS. After 2 h, the cells were washed with medium and 100 μL of fresh medium was added. The experiment was carried out in quadruplicate.
GLuc activity was monitored using a luminescence plate reader (Synergy 2, BioTek, Winooski, Vt., USA). A 10 μL volume of medium at different time points (12, 24, 36, 48, 60 h) was transferred into opaque white 96-well plates, and 25 μL of GLuc assay solution (10 μM colelenterazine (NanoLight Technologies, Pinetop, Ariz., USA) in 2.5 mM acidified methanol (100 mM HCl), buffer (10 mM Tris-HCl pH 7.8, 1 mM EDTA, 0.6 M NaCl)) was added by the automatic injector of the instrument.
In another embodiment, A549 or HT29 cells were transfected using the platinated transcription probes, and transcription levels were investigated by determining GLuc expression as measured by […] following addition of coelenterazine as a substrate for the exported enzyme. The emission intensities were normalized against unplatinated plasmids as a control. Transcription profiles were obtained by plotting normalized levels of GLuc expression against platination levels (Pt/plasmid ratio) at five different time points. […] An increase in D0 value at different time points represents restoration of transcription.

[4] = tested on: Gaussia luciferase expression in HeLa cells; settings: ratio of recovery of transcription level vs. time
Method: Vector Construction and Preparation. […] Preparation of Platinated Insertion Strand. […] The suspension was centrifuged. To a solution of 0.2 mM 16-mer oligonucleotide 5′-[…]*[…] The reaction mixture was incubated in the dark at 37° C. overnight. The reaction was stopped when the solution was frozen. […] After purification, the platinated DNA solution was dialyzed against H2O and lyophilized. […] The insertion strand was further analyzed for nucleotide composition by nuclease S1 digestion to confirm the platination site following a protocol published previously (Table 13) (e.g., see J Am Chem Soc 2007, 129, 6370-6371). The platinated and unplatinated DNA strands (40 μM) were phosphorylated by T4 PNK (0.67 U/μL) at 37° C. for 3 h, followed by a phenol/chloroform/isoamyl alcohol extraction to remove the enzyme. The phosphorylated DNA strands were ethanol precipitated and stored in −80° C. at a concentration of 100 pmol/μL.
Briefly, a 600 μg quantity of pGLuc8temG plasmid was digested with 30 U Nt.BbvCI at 37° C. for 1 h. The reaction mixture was heated at 80° C. for 20 min to deactivate the enzyme, followed by a phenol/chloroform/isoamyl alcohol extraction to remove the enzyme. The mixture was dialyzed against H2O overnight at 4° C. The plasmid was further digested with 30 U Nt.BspQI at 50° C. for 1 h, and the enzyme was heat-deactivated and removed by a phenol/chloroform/isoamyl alcohol extraction. The nicked plasmid was mixed with 1,000 equiv of complementary DNA strand 5′-[…] (SEQ ID NO: 2) in a buffer of 10 mM Tris-HCl, 2 mM MgCl2, 0.4 M NaCl, pH 7.4, heated at 80° C. for 5 min, and subsequently cooled at 4° C. for 5 min for 10 cycles. […] A 120 μg quantity of the gapped plasmid was annealed with 100 equiv of the insertion strand in a buffer of 10 mM Tris-HCl, 2 mM MgCl2, 0.4 M NaCl, pH 7.4 from 90° C. to 4° C. at −1° C./min in a thermocycler. The platinated plasmid was dialyzed against H2O at 4° C. overnight and further purified by treatment with 30 U BsmBI at 55° C. for 1 h. The closed-circular form of plasmid was purified and concentrated by isopycnic centrifugation, followed by n-butanol extraction and ethanol precipitation. The plasmids were quantitated by a Quant-iT™ PicoGreen® dsDNA Kit from Invitrogen (Carlsbad, Calif.), and stored in −80° C. in TE buffer (10 mM Tris-HCl, 2 mM EDTA, pH 7.4).
Transfection of platinated plasmids into mammalian cells was carried out as reported previously (e.g., see ChemBioChem 2011, 12, 1115-1123). A549 and HeLa cells were plated at 2,000 cells per well in 96-well plates. NTera-2 and HT29 cells were plated at 4,000 cells per well in 96-well plates. MCF7 and U2OS cells were plated at 5,000 cells per well in 96-well plates. The cells were allowed to attach and grow for 48 h, and then washed with antibiotic-free culture media right before transfection. Transient transfection of the cells was carried out using Lipofectamine 2000. Briefly, 10 ng of site specifically platinated probes was included in each well. The experiments were performed in quadruplicate. The probes were diluted in OptiMEM, and Lipofectamine was diluted in OptiMEM. The two solutions were combined and incubated for 20 min. The transfection mixture was delivered into each well, and the cells were incubated for 2 h. The cells were washed with antibiotic-free culture media to remove the transfection mixture. A 100 μL volume of fresh, antibiotic-free media was added into each well to start the transcription assay. […]

5′-dGMP = settings: 16 equiv 5′-dGMP, 37° C., PBS pH 7.4
Method: The 1-D ^1H NMR kinetic studies were performed in duplicate as a standard time-arrayed experiment using a variable delayed list. Incremented 1-D spectra were processed in exactly the same way and signals of aromatic amine ligands from platinum compounds were integrated. The relative concentrations of the platinum compound at each time point were calculated from peak integrals. […] Reactions of platinum compounds with 5′-dGMP were performed in NMR tubes containing 2 mM of the platinum compounds and 32 mM (16 equiv) of 5′-dGMP in 10 mM PBS buffer, D2O, pH*7.4 at 37° C.

Work on “cis-[Pt(NH3)2(phenanthridine)Cl]NO3 [phenanthriplatin]” yielded an IC50 ([1]; Table 3, A549 Lung, 72-h incubation) of 220 ± 10 nM, an IC50 ([1]; Table 4, A549 human lung carcinoma, 72 h incubation) of 170 ± 2 nM and an IC50 ([1]; Table 5, A549, 72-h incubation) of 220 ± 10 nM. For the same substance, the IC50 ([1]; Table 11 (Example 3), A549 Lung, 72 h) was 220 ± 6 nM, the IC50 ([1]; Table 14, A549, MTT assay) was 170 ± 10 nM and the IC50 ([2]; Table 3, PC3 Prostate, 72-h incubation) was 740 ± 40 nM. The IC50 ([2]; Table 11 (Example 3), PC3 Prostate, 72 h) was 600 ± 250 nM, the Pt per plasmid (pGLuc plasmid; rf 0.0008, 16 h at 37° C.) was 12.12 Pt per plasmid and the “rb (bound Pt/nucleotide)” value (pGLuc plasmid; rf 0.0008, 16 h at 37° C.) was 0.0015. For the same substance, the Pt per plasmid (pGLuc plasmid; rf 0.0019, 16 h at 37° C.) was 15.42 Pt per plasmid, the “rb (bound Pt/nucleotide)” value (pGLuc plasmid; rf 0.0019, 16 h at 37° C.) was 0.0019 and the Pt per plasmid (pGLuc plasmid; rf 0.0029, 16 h at 37° C.) was 24.28 Pt per plasmid. For the same substance, the “rb (bound Pt/nucleotide)” value (pGLuc plasmid; rf 0.0029, 16 h at 37° C.) was 0.0030, the Pt per plasmid (pGLuc plasmid; rf 0.0060, 16 h at 37° C.) was 42.80 Pt per plasmid and the “rb (bound Pt/nucleotide)” value (pGLuc plasmid; rf 0.0060, 16 h at 37° C.) was 0.0053. The “D0 (Pt lesions per plasmid required to reduce transcription levels to 37% of control)” value ([3]; HT29, 12 h after transfection) was 18.9 Pt/plasmid, the “D0 (Pt lesions per plasmid required to reduce transcription levels to 37% of control)” value ([3]; HT29, 48 h after transfection) was 23.5 Pt/plasmid and the “transcription level (normalized against unplatinated plasmid)” value ([3]; HT29, 60 h, Pt/DNA ratio of […] for phenanthriplatin) was 37.6%. For the same substance, the “D0 (Pt lesions per plasmid required to reduce transcription levels to 37% of control)” value ([3]; HT29, 60 h after transfection) was 25.0 Pt/plasmid, the “recovery rate of transcription (S)” value [4] was 0.434 and the “pseudo-first order rate constant, reaction with 5′-dGMP” value (5′-dGMP) was 0.22 h⁻¹.

— patent publication US9034862B2, “Compositions and methods for the treatment of cancer” (priority 2011, dated 2015)
